The text below walks through data of patent US20230339937A1, “CONDENSED RING COMPOUNDS THAT INHIBIT H-PGDS” (SATO PHARMACEUTICAL CO., LTD., priority 2020, published 2023).

In this experiment the target is T1, Recombinant human H-PGDS (Homo sapiens, UniProt O60760).
T1 construct: made in house; host or cells: E. coli
Description: H-PGDS inhibitory activity (prostaglandin D2 production from prostaglandin H2, measured by LC-MS/MS). The class given is biochemical. The note with it: recombinant human H-PGDS 1.0 nM expressed in E. coli; prostaglandin H2 25 μM; preincubated 15 minutes on ice, reacted on ice for 1 minute; concentration that inhibits prostaglandin D2 production by 50%. The method in brief:
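PGD2 formed from 25 µM prostaglandin H2 during a 1-min on-ice reaction was measured by LC-MS/MS after an FeCl2/citric acid stop. The enzyme was 1.0 nM E. coli-expressed human H-PGDS in Tris-HCl pH 8.0 buffer with MgCl2, reduced glutathione and γ-globulin, preincubated with compound for 15 min on ice. Production was normalised to DMSO controls minus the no-enzyme background.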

T1 sequence (O60760 whole entry): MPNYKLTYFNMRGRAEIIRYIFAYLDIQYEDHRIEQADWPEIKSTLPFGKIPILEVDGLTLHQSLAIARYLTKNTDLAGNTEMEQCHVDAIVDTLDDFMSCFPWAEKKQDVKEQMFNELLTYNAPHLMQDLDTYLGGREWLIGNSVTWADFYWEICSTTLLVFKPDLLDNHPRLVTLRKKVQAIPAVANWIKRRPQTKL

One may read the IC50 as the point on the concentration scale where inhibition reaches its midpoint. As to `O=C(NCc1ccccn1)c1ccc(-c2nccc3occc23)cc1` [Example 93, 4-(furo[3,2-c]pyridin-4-yl)-N-(pyridin-2-ylmethyl) benzamide], the 50% inhibitory concentration (IC50) worked out at 32 nM.
For `Cc1cc2[nH]ccc2c(-c2ccc(C(=O)N[C@H]3CC[C@H](C(C)(C)O)CC3)cc2)n1` [Example 338, N-[trans-4-(2-hydroxypropan-2-yl)cyclohexyl]-4-(6-methyl-1H-pyrrolo[3,2-c]pyridin-4-yl)benzamide] the value was 2.4 nM; for `C[C@]1(O)CC[C@H](NC(=O)c2ccc(-c3nccc4occc34)c(F)c2)CC1` [Example 346, 3-fluoro-4-(furo[3,2-c]pyridin-4-yl)-N-(trans-4-hydroxy-4-methylcyclohexyl)benzamide], 2 nM; for `CCCCCCNC(=O)c1ccc(-c2nccc3[nH]ccc23)cc1` [Example 6, N-hexyl-4-(1H-pyrrolo[3,2-c]pyridin-4-yl)benzamide], 1.8 nM.
Regarding `Cn1cc(CNC(=O)c2ccc(-c3nccc4[nH]ccc34)cc2)cn1` [Example 55, N-[(1-methyl-1H-pyrazol-4-yl)methyl]-4-(1H-pyrrolo[3,2-c]pyridin-4-yl)benzamide], the IC50 turned out to be 1.2 nM.
In the case of `CC(C)(O)CO[C@H]1CC[C@@H](NC(=O)c2ccc(-c3nccc4occc34)cc2)CC1` [Example 348, 4-(furo[3,2-c]pyridin-4-yl)-N-[cis-4-(2-hydroxy-2-methylpropoxy)cyclohexyl]benzamide], the IC50 came to 1.7 nM.
For `CC(O)CNC(=O)c1ccc(-c2nccc3occc23)cc1` (centres unmarked) [Example 68, 4-(furo[3,2-c]pyridin-4-yl)-N-(2-hydroxypropyl) benzamide] the value was 15 nM; for `O=C(NC1CN(c2ncccn2)C1)c1ccc(-c2nccc3occc23)cc1` [Example 217, 4-(furo[3,2-c]pyridin-4-yl)-N-[1-(pyrimidin-2-yl)azetidin-3-yl]benzamide], 2.4 nM; for `Cc1c(CNC(=O)c2ccc(-c3nccc4[nH]ccc34)cc2)cnn1C` [Example 42, N-[(1,5-dimethyl-1H-pyrazol-4-yl)methyl]-4-(1H-pyrrolo[3,2-c]pyridin-4-yl)benzamide], 0.74 nM.
In the case of `O=C(N[C@H]1CC[C@H](N2CCC(F)(F)C2)CC1)c1ccc(-c2nccc3occc23)cc1` [Example 306, N-[trans-4-(3,3-difluoropyrrolidin-1-yl)cyclohexyl]-4-(furo[3,2-c]pyridin-4-yl)benzamide] it was 1.8 nM.
In the case of `Cn1nnnc1N1CCC(NC(=O)c2ccc(-c3nccc4occc34)cc2)CC1` [Example 99, 4-(furo[3,2-c]pyridin-4-yl)-N-[1-(1-methyl-1H-tetrazol-5-yl)piperidin-4-yl]benzamide] it was 1.6 nM; in that of `O=C(NC1CCN(C2COC2)CC1)c1ccc(-c2nccc3occc23)cc1` [Example 236, 4-(furo[3,2-c]pyridin-4-yl)-N-[1-(oxetan-3-yl)piperidin-4-yl]benzamide], 1.1 nM.
For the compound `CC(O)[C@@H]1CC[C@@H](NC(=O)c2ccc(-c3nccc4occc34)cc2)CO1` (stereo partly drawn) [Example 212, 4-(furo[3,2-c]pyridin-4-yl)-N-[(3R,6S)-6-(1-hydroxyethyl)tetrahydro-2 H-pyran-3-yl]benzamide], the concentration for half-maximal inhibition (IC50) is 3.8 nM.
For `CCCn1nnnc1N1CCC(NC(=O)c2ccc(-c3nccc4occc34)cc2)CC1` [Example 240, 4-(furo[3,2-c]pyridin-4-yl)-N-[1-(1-propyl-1H-tetrazol-5-yl)piperidin-4-yl]benzamide] the value was 1.6 nM.
In the case of `O=C(N[C@H]1CC[C@@H](O)CC1)c1ccc(-c2nccc3occc23)cc1` [Example 262, 4-(furo[3,2-c]pyridin-4-yl)-N-(cis-4-hydroxycyclohexyl)benzamide] it was 2.5 nM; in that of `COc1cnc(N2CCC(NC(=O)c3ccc(-c4nccc5occc45)cc3)CC2)nc1` [Example 168, 4-(furo[3,2-c]pyridin-4-yl)-N-[1-(5-methoxypyrimidin-2-yl)piperidin-4-yl]benzamide], 1.7 nM.
As for `O=C(Nc1ccc(F)cc1)c1ccc(-c2nccc3occc23)cc1` [Example 111, N-(4-fluorophenyl)-4-(furo[3,2-c]pyridin-4-yl)benzamide], the IC50 came out at 5.5 nM.
For the compound `COCCn1nc(C)c(CNC(=O)c2ccc(-c3nccc4[nH]ccc34)cc2)c1C` [Example 45, N-{[1-(2-methoxyethyl)-3,5-dimethyl-1H-pyrazol-4-yl]methyl}-4-(1H-pyrrolo[3,2-c]pyridin-4-yl)benzamide], the IC50 was 0.91 nM.
For `Cn1c(N2CCC(NC(=O)c3ccc(-c4nccc5occc45)cc3)CC2)nccc1=O` [Example 183, 4-(furo[3,2-c]pyridin-4-yl)-N-[1-(1-methyl-6-oxo-1,6-dihydropyrimidin-2-yl)piperidin-4-yl]benzamide] the value was 1.7 nM; for `COCCNC(=O)c1ccc(-c2nccc3[nH]ccc23)cc1` [Example 23, N-(2-methoxyethyl)-4-(1H-pyrrolo[3,2-c]pyridin-4-yl)benzamide], 0.79 nM.
Turning to `O=C(NC1CCN(c2nccc(N3CCC3)n2)CC1)c1ccc(-c2nccc3occc23)cc1` [Example 178, N-{1-[4-(azetidin-1-yl)pyrimidin-2-yl]piperidin-4-yl}-4-(furo[3,2-c]pyridin-4-yl)benzamide], the IC50 turned out to be 1.9 nM.
In the case of `O=C(N[C@H]1CC[C@H](OC(F)F)CC1)c1ccc(-c2nccc3occc23)cc1` [Example 263, N-[trans-4-(difluoromethoxy)cyclohexyl]-4-(furo[3,2-c]pyridin-4-yl)benzamide] it was 4.2 nM; in that of `CCc1cnc(-c2ccc(C(=O)N[C@H]3CC[C@H](C(C)(C)O)CC3)cc2)c2ccoc12` [Example 138, 4-(7-ethylfuro[3,2-c]pyridin-4-yl)-N-[trans-4-(2-hydroxypropan-2-yl)cyclohexyl]benzamide], 15 nM; in that of `O=C(NCC1CCCC1)c1ccc(-c2nccc3[nH]ccc23)cc1` [Example 36, N-(cyclopenthyl-methyl)-4-(1H-pyrrolo[3,2-c]pyridin-4-yl)benzamide], 0.83 nM.
In the case of `Cc1cc2occc2c(-c2ccc(C(=O)N[C@H]3CC[C@H](C4(O)CC4)CC3)cc2)n1` [Example 334, N-[trans-4-(1-hydroxycyclopropyl)cyclohexyl]-4-(6-methylfuro[3,2-c]pyridin-4-yl)benzamide] it was 2 nM; in that of `Cn1cc(N2CCC(NC(=O)c3ccc(-c4nccc5occc45)cc3)CC2)cn1` [Example 252, 4-(furo[3,2-c]pyridin-4-yl)-N-[1-(1-methyl-1H-pyrazol-4-yl)piperidin-4-yl]benzamide], 1.2 nM; in that of `CCC(=O)N1CCC(NC(=O)c2ccc(-c3nccc4occc34)cc2)CC1` [Example 234, 4-(furo[3,2-c]pyridin-4-yl)-N-(1-propionylpiperidin-4-yl)benzamide], 1.6 nM.
In the case of `CCn1nnnc1N1CCC(NC(=O)c2ccc(-c3nccc4occc34)cc2)CC1` [Example 239, N-[1-(1-ethyl-1H-tetrazol-5-yl)piperidin-4-yl]-4-(furo[3,2-c]pyridin-4-yl)benzamide] it was 1.2 nM; in that of `CCOCCNC(=O)c1ccc(-c2nccc3occc23)cc1` [Example 80, N-(2-ethoxyethyl)-4-(furo[3,2-c]pyridin-4-yl)benzamide], 32 nM.
On to `CO[C@H]1CN(c2ncc(CO)cn2)C[C@H]1NC(=O)c1ccc(-c2nccc3occc23)cc1` [Example 206, 4-(furo[3,2-c]pyridin-4-yl)-N-((3R,4S)-1-[5-(hydroxymethyl)pyrimidin-2-yl]-4-methoxypyrrolidin-3-yl)benzamide], for which the concentration for half-maximal inhibition (IC50) is 39 nM.
On to `O=C(N[C@@H]1CN(c2ncc(CO)cn2)C[C@@H]1O)c1ccc(-c2nccc3occc23)cc1` [Example 208, 4-(furo[3,2-c]pyridin-4-yl)-N-((3R,4S)-4-hydroxy-1-[5-(hydroxymethyl)pyrimidin-2-yl]pyrrolidin-3-yl)benzamide], for which the IC50 stood at 14 nM.
As for `O=C(NC1CCN(c2ccncn2)CC1)c1ccc(-c2nccc3occc23)cc1` [Example 171, 4-(furo[3,2-c]pyridin-4-yl)-N-[1-(pyrimidin-4-yl)piperidin-4-yl]benzamide], the 50% inhibitory concentration (IC50) turned out to be 1.9 nM.
For the compound `O=C(N[C@H]1CC[C@@](O)(C(F)(F)F)CC1)c1ccc(-c2nccc3occc23)cc1` [Example 264, 4-(furo[3,2-c]pyridin-4-yl)-N-[trans-4-hydroxy-4-(trifluoromethyl)cyclohexyl]benzamide], the IC50 came to 3.5 nM.
Consider `CO[C@H]1CC[C@H](NC(=O)c2ccc(-c3nccc4occc34)cc2)CC1` [Example 285, 4-(furo[3,2-c]pyridin-4-yl)-N-(trans-4-methoxycyclohexyl)benzamide], for which the IC50 turned out to be 2 nM.
Regarding `O=C(NC1CCN(C(=O)CC(F)(F)F)CC1)c1ccc(-c2nccc3occc23)cc1` [Example 246, 4-(furo[3,2-c]pyridin-4-yl)-N-[1-(3,3,3-trifluoropropanoyl)piperidin-4-yl]benzamide], the IC50 amounted to 1.8 nM.
`O=C(NC1CCN(c2cnccn2)CC1)c1ccc(-c2nccc3occc23)cc1` [Example 145, 4-(furo[3,2-c]pyridin-4-yl)-N-[1-(pyrazin-2-yl)piperidin-4-yl]benzamide]: the IC50 stood at 1.2 nM.
`O=C(NCC1CCCC1)c1ccc(-c2nccc3occc23)cc1` [Example 84, N-(cyclopenthyl-methyl)-4-(furo[3,2-c]pyridin-4-yl)benzamide]: the IC50 was 14 nM.
On to `O=C(N[C@@H]1CN(c2ncc(CO)cn2)C[C@H]1F)c1ccc(-c2nccc3occc23)cc1` [Example 203, N-{(3R,4R)-4-fluoro-1-[5-(hydroxymethyl)pyrimidin-2-yl]pyrrolidin-3-yl}-4-(furo[3,2-c]pyridin-4-yl)benzamide], for which the IC50 was determined as 1.9 nM.
